Tests used:
[1] = system: gp120 interaction with CD4; conditions: Biorn et al. 2004; cited from earlier work
YU2 gp120 = target: T1, YU2 gp120 (Human immunodeficiency virus type 1 group M subtype B, UniProt P35961); format: binding, HIV-1; conditions: SPR
T1 construct: immobilized YU2 gp120
Description: Req. was calculated from 280 to 295 seconds in each concentration sensorgram and plotted against the concentration of the peptide.
Increasing concentrations of peptide were passed over an immobilized high density (5000 RU) surface. […] Buffer injections and controls were subtracted for all reported data. The equilibrium constant KD was calculated from the fit of direct binding to a steady state 1:1 binding model as a function of Req.

Compound | inhibition of interaction of gp120 to CD4 (in words) [1] | direct interaction with YU2 gp120 (in words) (YU2 gp120)
CC[C@H](C)[C@H](NC(=O)[C@@H](N)CCCNC(=N)N)C(=O)N[C@@H](CC(N)=O)C(=O)N[C@@H](CC(N)=O)C(=O)N[C@H](C(=O)N1CCC[C@H]1C(=O)N[C@@H](Cc1c[nH]c2ccccc12)C(=O)N[C@@H](CO)C(=O)N[C@@H](CCC(=O)O)C(=O)N[C@@H](C)C(=O)N[C@@H](CCSC)C(=O)N[C@@H](CCSC)C(=O)O)[C@@H](C)CC [Peptide 1] | micromolar affinity | 
RINNIAmpWSEAMM [Peptide 4] |  | no effect on gp120

Source: patent US8092805B2, “Dual inhibitors of HIV-1 gp-120 interactions” (priority 2004, dated 2012)
